Assay results as given in patent US4112073A, “Medicinal composition comprising adrenal cortical hormone and thyroid stimulating hormone releasing hormone” (Takeda Chemical Industries, Ltd., priority 1975, dated 1978).
Entries after “also recorded” stand apart in the source; their conditions may differ.

Experiments:
[1] = Relative clinical effect of ACH (dexamethasone equivalent); details: for Equivalent (dexamethasone equivalent): dexamethasone taken as unity
From the text: The relative amounts of ACH and TSH-releasing hormones may be determined according to the particular dosage form, the disease to be treated and other factors. Generally speaking, the ratio is about 1 (dexamethasone equivalent): 0.05 to 5, advantageously 0.05 to 2, and especially 0.1 to 1. The preferred ratio in each dosage form is; in the case of injections, about 1 (dexamethasone equivalent): 0.05 to 1, advantageously 0.1 to 1; in the case of oral preparations, about 1 (dexamethasone equivalent): 1 to 5, advantageously 1 to 2; and in the case of topical preparations, infusions and implants, about 1 (dexamethasone equivalent): 0.5 to 5, advantageously 0.5 to 2. The `dexamethasone equivalent` is an index number representing the relative clinical effect of any ACH with the effect of dexamethasone being taken as unity.

[2] = relative clinical effect of ACH; cited from earlier work
[3] = system: chronic moist dermatitis (in dogs); details: oral tablets; Akitaken, 25 kg
Procedure: Diagnosis: Chronic moist dermatitis
Therefore, on the next day one tablet containing 0.5 mg of dexamethasone and 1 mg of TRH tartrate was orally administered. […] As an adjunct to the medication, the dog was placed on a controlled regimen.

eczema (in dogs) = test: Treatment of eczema in dogs with ointment (Example 2); details: hydrophilic ointment 0.1%, externally applied

Compound	Equivalent (dexamethasone equivalent) [1]	Clinical effect [2]	therapeutic response [3]	clinical efficacy / potency compared with dexamethasone [1]	therapeutic result (eczema (in dogs); 4 dogs with exudative eczema)	adverse response (eczema (in dogs); dogs with exudative eczema)
C[C@]12CCC(=O)C=C1CC[C@@H]1[C@@H]2[C@@H](O)C[C@@]2(C)[C@H]1CC[C@]2(O)C(=O)CO [Hydrocortisone]	30	1.0				
C[C@@H]1C[C@H]2[C@@H]3CCC4=CC(=O)C=C[C@]4(C)[C@@]3(F)[C@@H](O)C[C@]2(C)[C@@]1(O)C(=O)CO [Dexamethasone, 9α-fluoro-16α-methylprednisolone]	1	30.0	failed to elicit a response			
C[C@@H]1C[C@H]2[C@@H]3C[C@H](F)C4=CC(=O)C=C[C@]4(C)[C@H]3[C@@H](O)C[C@]2(C)[C@@]1(O)C(=O)CO [Paramethasone, 6α-fluoro-16α-methylprednisolone]	3	10.0				
C[C@]12C=CC(=O)C=C1CC[C@H]1[C@@H]3C[C@@H](O)[C@](O)(C(=O)CO)[C@@]3(C)C[C@H](O)[C@@]12F [Triamcinolone, 9α-fluoro-16α-hydroxyprednisolone]	6	5.0		one-sixth		
C[C@H]1C[C@H]2[C@@H]3CCC4=CC(=O)C=C[C@]4(C)[C@@]3(F)[C@@H](O)C[C@]2(C)[C@@]1(O)C(=O)CO [Betamethasone, 9α-fluoro-16α-methylprednisolone]	1	30		as potent as dexamethasone		
C[C@]12C=CC(=O)C=C1CC[C@@H]1[C@@H]2[C@@H](O)C[C@@]2(C)[C@H]1CC[C@]2(O)C(=O)CO [Prednisolone, prednisolone]	7.5	4.0				
C[C@H]1C[C@@H]2[C@H]([C@@H](O)C[C@@]3(C)[C@H]2CC[C@]3(O)C(=O)CO)[C@@]2(C)C=CC(=O)C=C12 [Methylprednisolone, 6α-methylprednisolone]	6	5.0				
C[C@@H]1C[C@H]2[C@@H]3CCC4=CC(=O)C=C[C@]4(C)[C@@]3(F)[C@@H](O)C[C@]2(C)[C@@]1(O)C(=O)COP(=O)(O)O [dexamethasone phosphate]					a passing mitigation of inflammation or itchiness; also recorded: substantially no successful therapeutic result was obtained	an increase in the amount of exudate
